Test results taken from patent US10188754B2, “Compositions and methods for chemical exchange saturation transfer (CEST) based magnetic resonance imaging (MRI)” (THE JOHNS HOPKINS UNIVERSITY, priority 2013, dated 2019).
Where “and” joins values, the source holds several entries; their conditions need not be identical. Equal entries are not always repeated. Where two headings read alike, the source gives them in different places.

Tests used:
[1] = in vivo; cited from earlier work
[2] = format: in vivo, mouse; details: mice, i.v., 9.3 ppm, 7.2 μT
Source text: In particular, images consisting of a single axial slice containing both kidneys were collected. Because the B0 inhomogeneity was less than 200 Hz for these animals, a two-point collection scheme was used to limit the scan time, which is also allowed by the use of the 7.2 μT field strength. […] A Z-spectrum was acquired before injection. […] According to the initial results in FIGS. 4F-4G, the in vivo data collection scheme was modified in order to improve the kinetic data for compound 1 in the kidney. […] In vivo images were acquired on a Bruker Biospec 11.7 T horizontal bore MR scanner, with one axial slice of 1.5 mm thickness obtained through the medulla of both kidneys. […] The BALB/c mice (n=2) weighing 20-25 g (Charles River Laboratories, Wilmington, Mass.) were maintained under specific pathogen free conditions in the animal facility of Johns Hopkins University. […] Breath rate was monitored throughout in vivo MRI experiments using a respiratory probe. […] BALB/c mice weighing 20-25 g (Charles River Laboratories, Wilmington, Mass.) were maintained under specific pathogen free conditions in the animal facility of Johns Hopkins University. […] Breath rate was monitored throughout in vivo MRI experiments using a respiratory probe. A 60 μL, volume of a 0.25 M salicylic acid solution in PBS (pH 7) was slowly injected via a catheter into the tail vein. […]

[3] = QUESP/QUEST determination of ksw of anthranilic acid analogs; format: physicochemical
[4] = neutral pH; cited from earlier work
[5] = format: physicochemical; details: 10 mM, pH 7.3-7.4, tsat = 3 sec, ω1 = 3.6 μT, 37° C.
[6] = format: physicochemical; details: 25 mM, pH 7.0-7.4, tsat=3 sec, ω1=3.6 μT, 37° C., 11.7 T
Protocol: 25 mM salicylic acid analogs (4-11) were made at pH 7.1-7.4 and tested with the phantom condition as described above. The Z-spectra were obtained by using Tsat=3 sec, ω1=3.6 μT at 37° C. […] CEST contrast was quantified by MTRasym=(S−Δω−S+Δω))/S0 after a voxel-by-voxel B0 correction, with characterized mean Z-spectra and MTRasym spectra for sample ROIs plotted and the typical results were summarized in FIG. 3A.

[7] = pH 7.1-7.4, B1=3.6 μT, Tsat=3 s, 37° C., 11.7 T
[8] = 10 mM, pH 7.3-7.4, 37° C.
[9] = QUESP measurement of proton exchange rate (ksw) of salicylic acid; format: physicochemical; details: 25 mM, pH 7.0, QUESP
[10] = 48.5 tM iopamidol; cited from earlier work

In the case of `O=C(O)c1ccc(O)cc1O` [2,4-Dihydroxy benzoic acid], the LD50 [1] is given as 800 mg/kg.

In the case of `Nc1ccc(C(=O)O)c(O)c1` [4-amino salicylic acid], the LD50 [1] is given as 4,250 mg/kg.

In the case of `O=C(O)c1ccccc1O` [Compound 1, salicylic acid], the “average CEST contrast over the whole kidney” value [2] is reported as 6.0±0.8% and 6%, the ksw ([3]; pH 6.5) is reported as 2.4 kHz and the ksw ([3]; pH 7.8) is reported as 0.4 kHz. The “exchange rate (previously reported)” value [4] was 600 s⁻¹, the “Signal (ppm)” value ([5]; Table 1) was 9.3 ppm and the “chemical shift of CEST contrast (exchangeable proton) from water” value [6] was 9.3 ppm. For the same compound, the “CEST frequency / labile proton chemical shift from water” value [7] was 9.3 ppm, the “kex” value ([8]; Table 1) was 400 s⁻¹ and the “proton exchange rate with water (ksw)” value [9] was 1.2 ks^−1.

In the case of `O=C(O)c1ccccc1Nc1cccc(C(F)(F)F)c1` [Compound 5, flufenamic acid, reference compound], the LD50 [1] is listed as 150 mg/kg.

With `COc1cccc(O)c1C(=O)O` [Compound 21, 6-methoxysalicylic acid] the “Signal (ppm)” value ([5]; Table 3) was 9.0 ppm and the “kex” value ([8]; Table 3) was 4900 s⁻¹.

In the case of `O=C(O)c1c(O)cccc1O` [Compound 22, 2,6-dihydroxybenzoic acid], the “Signal (ppm)” value ([5]; Table 3) is reported as 9.3 ppm and the “kex” value ([8]; Table 3) is reported as 30 s⁻¹.

For `Cc1cccc(C(=O)O)c1O` [Compound 23, 3-Methylsalicylic acid], the “Signal (ppm)” value ([5]; Table 4) was 9.5 ppm and the “kex” value ([8]; Table 4) was 250 s⁻¹.

For `CC(C)(C)c1cc(C(=O)O)c(O)c(C(C)(C)C)c1` [Compound 24, 3,5-di-tert-butylsalicylic acid], the “Signal (ppm)” value ([5]; Table 4) was 9.3 ppm and the “kex” value ([8]; Table 4) was 22 s⁻¹.

In the case of `O=C(O)c1cccc(F)c1O` [Compound 25], the “Signal (ppm)” value ([5]; Table 4) is reported as 9.5 ppm and the “kex” value ([8]; Table 4) is reported as 750 s⁻¹.

With `O=C(O)c1cc(Cl)cc(Cl)c1O` [Compound 26] the “Signal (ppm)” value ([5]; Table 4) was 10.3 ppm and the “kex” value ([8]; Table 4) was 1070 s⁻¹.

In the case of `O=C(O)c1cc(Br)cc(Br)c1O` [Compound 27, 3,5-Dibromosalicylic acid], the “Signal (ppm)” value ([5]; Table 4) is reported as 10.5 ppm and the “kex” value ([8]; Table 4) is reported as 580 s⁻¹.

For `O=C(O)c1cc(I)cc(I)c1O` [Compound 28], the “Signal (ppm)” value ([5]; Table 4) was 10.8 ppm and the “kex” value ([8]; Table 4) was 310 s⁻¹.

With `O=C(O)c1ccc2ccccc2c1O` [Compound 29, 1-Hydroxy-2-naphthoic acid] the “Signal (ppm)” value ([5]; Table 4) was 10.5 ppm and the “kex” value ([8]; Table 4) was 220 s⁻¹.

For `COc1cccc(C(=O)O)c1O` [Compound 32, 3-methoxysalicylic acid], the “Signal (ppm)” value ([5]; Table 4) was 9.3 ppm and the “kex” value ([8]; Table 4) was 480 s⁻¹.

With `Nc1cccc(C(=O)O)c1O` [Compound 33, 3-aminosalicylic acid] the “Signal (ppm)” value ([5]; Table 4) was 9.0 ppm and the “kex” value ([8]; Table 4) was 410 s⁻¹.

For `O=Cc1cccc(C(=O)O)c1O` [Compound 34, 3-Formylsalicylic acid], the “Signal (ppm)” value ([5]; Table 4) was 10.5 ppm and the “kex” value ([8]; Table 4) was 510 s⁻¹.

For `O=C(O)c1ccccc1Nc1ccccc1` [Compound 37], the “Signal (ppm)” value ([5]; Table 5) was 4.8 ppm and the “kex” value ([8]; Table 5) was 670 s⁻¹.

In the case of `CS(=O)(=O)Nc1ccc(N)cc1C(=O)O` [Compound 38], the “Signal (ppm)” value ([5]; Table 5) is reported as 6.3 ppm and the “kex” value ([8]; Table 5) is reported as 550 s⁻¹.

In the case of `CS(=O)(=O)Nc1ccccc1C(=O)O` [Compound 39], the “Signal (ppm)” value ([5]; Table 5) is reported as 7.3 ppm and the “kex” value ([8]; Table 5) is reported as 470 s⁻¹.

In the case of `Cc1ccc(S(=O)(=O)Nc2ccccc2C(=O)O)cc1` [Compound 40], the “Signal (ppm)” value ([5]; Table 5) is reported as 7.8 ppm and the “kex” value ([8]; Table 5) is reported as 440 s⁻¹.

With `O=C(O)c1ccccc1NC(=O)C(F)(F)F` [Compound 41] the “Signal (ppm)” value ([5]; Table 5) was 9.3 ppm and the “kex” value ([8]; Table 5) was 190 s⁻¹.

In the case of `O=C(O)c1cc(O)c(C(=O)O)cc1O` [Compound 42], the “Signal (ppm)” value ([5]; Table 6) is reported as 8.3 ppm and the “kex” value ([8]; Table 6) is reported as 990 s⁻¹.

With `O=C(O)c1cc(C(=O)O)c(O)cc1O` [Compound 43, 4,6-dihydroxyisophthalic acid] the “Signal (ppm)” value ([5]; Table 6) was 9.8 ppm and the “kex” value ([8]; Table 6) was 460 s⁻¹.

With `O=C(O)c1cc2ccccc2c(Cc2c(O)c(C(=O)O)cc3ccccc23)c1O` [Compound 44, Pamoic acid] the “Signal (ppm)” value ([5]; Table 6) was 9.5 ppm and the “kex” value ([8]; Table 6) was 130 s⁻¹.

For `C[C@H](O)C(=O)Nc1c(I)c(C(=O)NC(CO)CO)c(I)c(C(=O)NC(CO)CO)c1I` [iopamidol], the “optimal time to observe the contrast” value [10] is given as 45 min.
